Measured values from patent publication US5225528A, “Cyclic hexapeptide oxytocin antagonists” (priority 1990, dated 1993).
Where a name gives a salt, the structure may show the parent alone. Read-outs that look alike come from different tables or passages of the source. Numbered stars: 1 amine (or outer) side, 2 acyl side, 3 side chain; on linkers, the order of the positions; unused ones are H or OH. Square brackets hold non-standard residues; d marks the D form. Peptide text beside a SMILES is read from it. X8 = Cn1c[n+](C)cc1C[C@@H](N[*:1])C(=O)[*:2]; d2Nal = N[C@H](Cc1ccc2ccccc2c1)C(=O)O; X3 = O=C([C@@H]1C=CCCN1[*:1])[*:2]; dNMeH = CN[C@H](Cc1c[nH]cn1)C(=O)O; X1 = O=C([C@H]1C=CCCN1[*:1])[*:2]; NMeI = CC[C@H](C)[C@H](NC)C(=O)O; X6 = O=C([C@H]1CCCNN1[*:1])[*:2]; dNMeF = CN[C@H](Cc1ccccc1)C(=O)O; Pip = O=C(O)[C@@H]1CCCCN1; dPip = O=C(O)[C@H]1CCCCN1; Nle = CCCC[C@H](N)C(=O)O; dNMeA = CN[C@H](C)C(=O)O

How the values were obtained:
AVP-V1 sites = biological target: T1, AVP-V1 sites (Rattus norvegicus, UniProt P30560); assay: [^3 H]AVP binding to crude membrane preparation of male rat liver (AVP-V1 sites)
T1 construct: crude membrane preparation of male rat liver (AVP-V1 sites); from tissue; host or cells: male rat liver, crude membranes
T1 sequence (P30560 whole entry): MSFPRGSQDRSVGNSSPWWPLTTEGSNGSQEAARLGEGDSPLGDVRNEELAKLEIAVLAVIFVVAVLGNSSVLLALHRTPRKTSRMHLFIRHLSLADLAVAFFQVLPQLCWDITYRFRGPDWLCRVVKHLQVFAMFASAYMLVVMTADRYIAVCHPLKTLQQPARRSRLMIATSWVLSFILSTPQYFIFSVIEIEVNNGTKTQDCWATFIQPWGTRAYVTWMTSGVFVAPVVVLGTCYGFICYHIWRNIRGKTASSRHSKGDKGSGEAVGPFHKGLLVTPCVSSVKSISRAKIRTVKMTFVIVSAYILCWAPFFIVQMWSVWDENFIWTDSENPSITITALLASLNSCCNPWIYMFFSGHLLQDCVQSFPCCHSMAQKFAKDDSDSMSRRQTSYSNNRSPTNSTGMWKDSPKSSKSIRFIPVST
Protocol: (§1) Nonspecific binding (5-10% of the total binding) was determined using 10 μM unlabeled AVP, and the binding reaction was terminated by filtration as described above for the [^3 H]OT binding assay.

AVP-V2 sites = biological target: T2, AVP-V2 sites (Rattus norvegicus, UniProt Q00788); assay: [^3 H]AVP binding to crude membrane preparation of male rat kidney medulla (AVP-V2 sites)
T2 construct: male rat liver (AVP-V1 sites) or kidney medulla (AVP-V2 sites); from tissue; host or cells: male rat kidney medulla, crude membranes
T2 sequence (Q00788 whole entry): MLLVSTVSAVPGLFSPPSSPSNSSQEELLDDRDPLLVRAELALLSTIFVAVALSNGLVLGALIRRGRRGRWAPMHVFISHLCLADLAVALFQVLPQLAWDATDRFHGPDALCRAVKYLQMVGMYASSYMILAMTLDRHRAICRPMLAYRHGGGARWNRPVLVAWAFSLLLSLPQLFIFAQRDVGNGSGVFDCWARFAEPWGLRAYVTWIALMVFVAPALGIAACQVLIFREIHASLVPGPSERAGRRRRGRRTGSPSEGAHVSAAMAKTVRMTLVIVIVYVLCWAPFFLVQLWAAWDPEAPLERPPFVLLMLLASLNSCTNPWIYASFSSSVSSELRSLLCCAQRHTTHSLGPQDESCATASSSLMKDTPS
Protocol: as §1

uterine OT receptors = biological target: T3, uterine OT receptors (Rattus norvegicus, UniProt P70536); assay: [^3 H]OT binding to uterine OT receptors, crude membrane preparation of uteri from DES-treated rats
T3 construct: from tissue; host or cells: uterus of DES-treated rats, crude membranes
T3 sequence (P70536 1-388): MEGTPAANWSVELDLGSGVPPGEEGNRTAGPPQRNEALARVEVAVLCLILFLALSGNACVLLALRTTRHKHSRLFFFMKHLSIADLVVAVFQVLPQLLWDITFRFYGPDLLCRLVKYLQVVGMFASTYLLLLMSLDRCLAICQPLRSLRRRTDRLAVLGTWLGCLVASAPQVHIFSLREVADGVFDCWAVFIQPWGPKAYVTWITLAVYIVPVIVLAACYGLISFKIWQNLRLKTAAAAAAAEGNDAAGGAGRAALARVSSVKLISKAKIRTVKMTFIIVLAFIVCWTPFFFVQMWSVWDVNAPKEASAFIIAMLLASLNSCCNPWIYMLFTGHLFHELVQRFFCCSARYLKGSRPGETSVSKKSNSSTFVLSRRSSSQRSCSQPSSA
Protocol: Competition studies were conducted at equilibrium (60 minutes; 22° C.) using 1 nM [^3 H]OT in the following assay buffer: 50 mM Tris-HCl, 5 mM MgCl2, and 0.1% BSA, pH 7.4.

[1] = Receptor Binding Results IC50 (nM) [^3 H]-AVP-V1
[2] = rat kidney medulla membranes, 2 nM [^3 H]AVP, read-out: Receptor Binding Results IC50 (nM) [^3 H]-AVP-V2
[3] = Receptor Binding Results IC50 (nM) [^3 H]OT
[4] = rat uterus membranes, 1 nM [^3 H]OT, read-out: Receptor Binding Results IC50 (nM) [^3 H]OT
[5] = Receptor Binding Results IC50 (nM) [^3 H]-AVP-V2
[6] = read-out: Receptor Binding Results IC50 (nM) [^3 H]-AVP-V1

SMILES | IC50 (AVP-V1 sites; [1]) | IC50 (AVP-V2 sites; [2]) | IC50 (uterine OT receptors; [3]) | IC50 (uterine OT receptors; [4]) | IC50 (AVP-V2 sites; [5]) | IC50 (AVP-V1 sites; [6]) | IC50 (AVP-V2 sites; read-out: Receptor Binding Results IC50 (nM) [^3 H]-AVP-V2)
CC[C@H](C)[C@@H]1NC(=O)[C@@H](Cc2ccccc2)NC(=O)[C@@H]2CCCN2C(=O)[C@@H](Cc2ccccc2)N(C)C(=O)[C@@H]2CCCN2C(=O)[C@H]2CCCCN2C1=O [Example 7, Cyclo[D-phenylalanyl-L-isolelucyl-D-pipecolyl-L-propyl-D-(N^α Methyl)phenyl-L-prolyl]] (cyclo(I[dPip]P[dNMeF]P[dF])) | > 10000 nM | > 10000 nM | 350 nM | – | – | – | –
CC[C@H](C)[C@@H]1NC(=O)[C@@H](Cc2ccccc2)NC(=O)[C@@H]2CCCN2C(=O)[C@@H](Cc2ccccc2)N(C)C(=O)[C@@H]2CCCCN2C(=O)[C@@H](C)N(C)C1=O [Example 8, Cyclo[D-Phenylalanyl-L-isoleucyl-D-(N^α methyl)alanyl-L-pipecolyl-D-(N^α methyl)phenylanyl-L-prolyl]] (cyclo(I[dNMeA][Pip][dNMeF]P[dF])) | > 10000 nM | > 10000 nM | – | 850 nM | – | – | –
C[C@@H]1NC(=O)[C@@H](Cc2ccccc2)NC(=O)[C@@H]2CCCN2C(=O)[C@@H](Cc2ccccc2)N(C)C(=O)[C@@H]2CCCCN2C(=O)[C@H]2CCCCN2C1=O [Example 9, Cyclo[D-phenylalanyl-L-alanyl-D-pipecolyl-L-pipecolyl-D-(N^α methyl)phenylalanyl-L-prolyl]] (cyclo(A[dPip][Pip][dNMeF]P[dF])) | > 10000 nM | > 10000 nM | – | > 10000 nM | – | – | –
CC[C@H](C)[C@@H]1NC(=O)[C@@H](Cc2ccc3ccccc3c2)NC(=O)[C@@H]2CCCN2C(=O)[C@@H](Cc2c[nH]cn2)NC(=O)[C@@H]2CCCCN2C(=O)[C@H]2CCCCN2C1=O [Example 12, Cyclo[D-2-naphthalalanyl-L-isoleucyl-D-pipecolyl-L-pipecolyl-D-histidyl-L-prolyl]] (cyclo(I[dPip][Pip][dH]P[d2Nal])) | > 1000 nM | – | – | 1.2 nM | > 1000 nM | – | –
CC[C@H](C)[C@@H]1NC(=O)[C@@H](Cc2ccccc2)NC(=O)[C@@H]2CCCN2C(=O)[C@@H](Cc2ccccc2)N(C)C(=O)[C@H](Cc2cnc[nH]2)NC(=O)[C@H]2CCCCN2C1=O [Example 13] (cyclo(H[dNMeF]P[dF]I[dPip])) | > 1000 nM | – | – | 150 nM | > 1000 nM | – | –
CC[C@H](C)[C@@H]1NC(=O)[C@@H](Cc2ccccc2)NC(=O)[C@@H]2CCCN2C(=O)[C@@H](Cc2c[nH]cn2)NC(=O)[C@@H]2CCCCN2C(=O)[C@H]2CCCNN2C1=O [Example 14, Cyclo[D-phenylalanyl-L-isoleucyl-D-piperazyl-L-pipecolyl-D-histidyl-L-prolyl]] (cyclo(I[X6][Pip][dH]P[dF])) | – | – | – | 38 nM | – | 10000 nM | > 10000 nM
CC[C@H](C)[C@H]1C(=O)N2CCCC[C@@H]2C(=O)N2CCCC[C@H]2C(=O)N(C)[C@H](Cc2ccccc2)C(=O)N2CCC[C@H]2C(=O)N(C)[C@H](Cc2ccccc2)C(=O)N1C [Example 15, C-[D-(N^α methyl)phenylalanyl-L-(N^α methyl)isoleucyl-D-pipecolyl-L-pipecolyl-D-(N^α methyl)phenylalanyl-L-prolyl]] (cyclo([NMeI][dPip][Pip][dNMeF]P[dNMeF])) | > 10000 nM | > 10000 nM | – | > 10000 nM | – | – | –
CC[C@H](C)[C@H]1C(=O)N2CCCC[C@@H]2C(=O)N2CCCC[C@H]2C(=O)N(C)[C@H](Cc2ccccc2)C(=O)N2CCC[C@H]2C(=O)N(C)[C@H](C)C(=O)N1C [Example 16, C-[D-(N^α methyl)alanyl-L-(N^α methyl)isoleucyl-D-pipecolyl-L-pipecolyl-D-(N^α methyl)phenylalanyl-L-prolyl]] (cyclo([NMeI][dPip][Pip][dNMeF]P[dNMeA])) | > 10000 nM | > 10000 nM | – | 650 nM | – | – | –
CC[C@H](C)[C@@H]1NC(=O)[C@@H](Cc2c[nH]c3ccccc23)NC(=O)[C@@H]2CCCN2C(=O)[C@@H](Cc2c[nH]cn2)NC(=O)[C@@H]2CCCCN2C(=O)[C@H]2CCCCN2C1=O [Example 17, C-[D-tryptophanyl-L-isolelucyl-D-pipecolyl-L-pipecolyl-D-histidyl-L-prolyl]] (cyclo(I[dPip][Pip][dH]P[dW])) | – | 5400 nM | 14 nM | – | – | 8200 nM | –
CC[C@H](C)[C@@H]1NC(=O)[C@@H](Cc2c[nH]c3ccccc23)NC(=O)[C@@H]2CCCN2C(=O)[C@@H](Cc2c[n+](C)cn2C)NC(=O)[C@@H]2CCCCN2C(=O)[C@H]2CCCCN2C1=O [Example 18, Cyclo[D-tryptophanyl-L-isoleucyl-D-pipecolyl-L-pipecolyl-D-[im-(CH3)2]^+ histidyl-L-prolyl] trifluoroacetate] (cyclo(I[dPip][Pip][X8]P[dW])) | > 1000 nM | > 10000 nM | – | 450 nM | – | – | –
CC[C@H](C)[C@@H]1NC(=O)[C@@H](Cc2c[nH]c3ccccc23)NC(=O)[C@@H]2CCCN2C(=O)[C@@H](Cc2c[nH]cn2)N(C)C(=O)[C@@H]2CCCCN2C(=O)[C@H]2CCCCN2C1=O [Example 19, Cyclo[D-tryptophanyl-L-isoleucyl-D-pipecolyl-L-pipecolyl-D-(N^α methyl)histidyl-L-prolyl]] (cyclo(I[dPip][Pip][dNMeH]P[dW])) | – | 4330 nM | – | 18 nM | – | 13700 nM | –
CCCC[C@@H]1NC(=O)[C@@H](Cc2c[nH]c3ccccc23)NC(=O)[C@@H]2CCCN2C(=O)[C@@H](Cc2c[nH]cn2)NC(=O)[C@@H]2CCCCN2C(=O)[C@H]2CCCCN2C1=O [Example 20, Cyclo[D-tryptophanyl-L-Norleucyl-D-pipecolyl-L-pipecolyl-D-histidyl-L-prolyl]] (cyclo([Nle][dPip][Pip][dH]P[dW])) | > 1000 nM | – | – | 72 nM | > 1000 nM | – | –
CC(C)C[C@@H]1NC(=O)[C@@H](Cc2c[nH]c3ccccc23)NC(=O)[C@@H]2CCCN2C(=O)[C@@H](Cc2c[nH]cn2)NC(=O)[C@@H]2CCCCN2C(=O)[C@H]2CCCCN2C1=O [Example 21, Cyclo[D-tryptophanyl-L-leucyl-D-pipecolyl-L-pipecolyl-D-histidyl-L-prolyl]] (cyclo(L[dPip][Pip][dH]P[dW])) | 10000 nM | – | 190 nM | – | > 10000 nM | – | –
CC[C@H](C)[C@@H]1NC(=O)[C@@H](Cc2ccccc2)NC(=O)[C@@H]2CCCN2C(=O)[C@@H](Cc2ccccc2)N(C)C(=O)[C@H]2C=CCCN2C(=O)[C@H]2CCCCN2C1=O [Example 22, Cyclo[D-Phenylalanyl-L-isoleucyl-D-pipecolyl-D-(3,4-Dehydro)-pipecolyl-D-(N^α methyl)phenylalanyl-L-Prolyl]] (cyclo(I[dPip][X1][dNMeF]P[dF])) | > 10000 nM | > 10000 nM | – | 2400 nM | – | – | –
CC[C@H](C)[C@@H]1NC(=O)[C@@H](Cc2ccccc2)NC(=O)[C@@H]2CCCN2C(=O)[C@@H](Cc2ccccc2)N(C)C(=O)[C@@H]2C=CCCN2C(=O)[C@H]2CCCCN2C1=O [Example 23, Cyclo[D-phenylanyl-L-isoleucyl-D-pipecolyl-L-(3,4-dehydro)-pipecolyl-D-(N^α methyl)phenylalanyl-L-prolyl]] (cyclo(I[dPip][X3][dNMeF]P[dF])) | > 10000 nM | > 10000 nM | – | 625 nM | – | – | –
